Data: patent US10369124B2, “Dendrimer compositions and their use in treatment of diseases of the eye” (The Johns Hopkins University, priority 2014, dated 2019)

Tests used:
[1] = system: Iba-1+ microglia/macrophages in retina; assay: Retinal biodistribution of D-Cy5 by immunohistochemistry and confocal microscopy in ischemia/reperfusion (I/R) injury; settings: mouse, in vivo
Method: Animals & Ischemia reperfusion (I/R) injury. All procedures involving the animals conformed to the ARVO Statement for the Use of Animals in Ophthalmic and Vision Research. BALB/c albino mice, each weighing ˜25 grams, housed in Wilmer animal facility at Johns Hopkins were used for transport as well as I/R studies. All surgeries were performed under ketamine (100 mg/Kg) and Xylazine (10 mg/kg) peritoneal anaesthesia. Six mice were used in each group at each time point. I/R injury was performed in the left eye by following the procedure described elsewhere. Briefly, the anterior chamber was cannulated with 30 gauze needle attached to a line infusing saline. The saline system is mounted on to a custom-made saline reservoir and elevated to certain height (calibrated to 90 mm Hg). The IOP was elevated to 90 mm Hg for 90 minutes and I/R injury and shut off of choroidal circulation was evidenced by blanching of the posterior segment via fundus examination through the operating microscope. After ischemia, the needle was immediately withdrawn for immediate blood reperfusion. The right eye had no I/R injury and served as control.
Dendrimer injection and Animal sacrifice. Six days post I/R injury, BALB/c mice were injected with dendrimer either intravitreally or intravenously. […]
Immunohistochemistry and confocal microscopy. […] Sections were analysed on a Zeiss 510 confocal microscope. […]

[2] = Quantitative biodistribution of D-Cy5 in vital organs by fluorescence spectroscopy (FLS); format: in vivo, BALB/c mice; settings: IV
Method: Biodistribution analysis of D-Cy5 in vital organs. Twelve BALB-C mice weighing ˜25 gr BW were used for this study. Four animals were sacrificed at each time point: 24 hours, 72 hours and 21 days. Each mouse was injected via femoral vein with 600 μg of D-Cy5 in 100 μL of sterile PBS. At respective time point, the animals were euthanized and vital organs (heart, lungs, spleen, kidney, liver and eyes) were harvested immediately and organ wet weights were noted. Organs were snap frozen on dry ice, and stored at −80° C. until analysis. Upon analysis, the tissues were thawed and approximately 100-150 mg of tissue were measured and homogenized with 1 ml of MeOH in low DNA binding tubes (Eppendorf AG, Hamburg, Germany) using stainless steel bead and tissue homogenizer (Tissuelyzer LT, QIAGEN, Hilden, Germany) resulting in a pulpy tissue suspension. The suspension was sonicated for 30 minutes and appropriate volumes containing 100 mg of tissue were placed in different low DNA binding vials and diluted with methanol to 1 ml so that the same amount of tissue and same volume was analyzed for each sample. The samples were centrifuged at 10,000 rpm for 10 minutes at 4° C. resulting in supernatants, which were subjected to fluorescence spectroscopy (FLS).
Quantitative biodistribution of D-Cy5 in vital organs. Quantitative biodistribution in vital organs (liver, kidney, spleen, heart, lungs and serum) and kinetics of D-Cy5 injected intravenously into animals with I/R injury was assessed using FLS (fluorescence spectroscopy) method. For analysis, weight of tissues was measured before being homogenized and D-Cy5 was extracted using methanol as described previously by Lesniak et al. (Molecular pharmaceutics 10 (12), 4560-4571). The D-Cy conjugates were intact stable in human plasma at 37° C. and in vivo, and also the applied methanol extraction protocol yielded best recovery of 96%. The methanol extracts were subjected to fluorescence measurements for emission values using fluorescence spectrophotometer. […]

[3] = system: choroidal neovascularization (CNV); assay: CNV area in lipid (HpODE) injected CNV rat model, choroidal flat mounts; format: in vivo, SD rats; settings: systemic, 20 mg/kg on NAC basis, assessed Day 10
Method: CNV rat model. Male SD rats of ˜300 grams each were chosen for this study. Lipid 3(S)-hydroperoxy-9Z,11E-octadecadienoic acid (HpODE) (Cayman Chemicals, Michigan, USA.) was dissolved in cold borate buffer at a concentration of 500 μg/33 μL. Two μL of lipid was injected sub-retinal on day 1 forming a bleb in retina. By day 3 the lipid bleb was gone and retinal degeneration began. At day 7 post-lipid injection, neovascularization from choroid (CNV) begins to form and inflammation occurs in retina and choroid as well as neovascularization in retina (RNV). This model causes damage to both choroid and retina and has characteristics of both dry and wed AMD forms (FIG. 12A).
Effect of N-acetal-Cysteine (NAC) on CNV model. A combination of D-NAC (dendrimer-NAC; 10 mg/kg on a NAC basis) and 6 mg of D-Cy5 were injected intravenously via penile vein on day 3 post lipid injection and animals were sacrificed on day 7 post injection. The animals injected with D-Cy5 and PBS served as controls. […] The confocal images choroids of D-NAC treated and control groups were analyzed for CNV area measurements using Image-J software. […]
D-NAC was administered on Day 3 (two days after lipid administration), and on day 5 and day 7 at 20 mg/kg on a NAC basis. […] CNV areas were assessed using morphometric analysis (yellow delineation) in Image-J software. […] Values were analyzed using Mann-Whitney t-test with n=12 and P<0.001

[4] = system: IL-1β, IL-6, MCP-1, TNFα, IL-10; assay: Choroid cytokine levels by ELISA in CNV rat model; format: in vivo, SD rats; settings: n=8 choroids/group
Method: FIGS. 16A-16C depict that the choroids from the different groups were analyzed using ELISA (n=8 choroids/group).
(§1) CNV rat model. Male SD rats of ˜300 grams each were chosen for this study. Lipid 3(S)-hydroperoxy-9Z,11E-octadecadienoic acid (HpODE) (Cayman Chemicals, Michigan, USA.) was dissolved in cold borate buffer at a concentration of 500 μg/33 μL. Two μL of lipid was injected sub-retinal on day 1 forming a bleb in retina.
The effect of D-NAC choroidal inflammation was assessed in a blinded manner, by measuring proinflammatory (IL-1β, IL-6, MCP-1-monocyte chemoattractant, and TNFα) and anti-inflammatory cytokine levels (IL-10).

[5] = system: IL-1β, IL-6, MCP-1, TNFα, IL-10; assay: Retina cytokine levels by ELISA in CNV rat model; format: in vivo, SD rats; settings: n=8/group
Method: as §1
The effect of D-NAC on retinal inflammation was assessed in a blinded manner, by measuring proinflammatory (IL-1β, IL-6, MCP-1, and TNFα) and anti-inflammatory (IL-10) cytokine levels.

Row | SMILES | retinal clearance [1] | retinal clearance ([1]; iv) | accumulation in kidney ([2]; 24 hours) | fluorescent signal in other organs (than kidney) ([2]; 24 hours) | level in any of the organs ([2]; 72 hours) | effect on CNV areas compared to PBS [3] | proinflammatory cytokines in choroid [4] | proinflammatory cytokines in retina [5]
1 | CCN1/C(=C/C=C/C=C/C2=[N+](CCCCCC(=O)O)c3ccc(S(=O)(=O)O)cc3C2(C)C)C(C)(C)c2cc(S(=O)(=O)[O-])ccc21 [free Cy5] | completely cleared | cleared | 0.82±2.93 % of injected dose (ID)/organ | could not detect any fluorescent signals | not detectable | – | – | –
2 | CC(=O)N[C@@H](CS)C(=O)O [free NAC, N-acetyl cysteine] | – | – | – | – | – | some decrease that was not significant | not effective | not effective
